Experimental findings from the SangsterLogP compilation are described below.

Structures are written as SMILES.

This data set can be described thus: method code SF-HPLC, from DOI: 10.1080/10826079808000494. The settings on record: pH 6.9.
As to `CCOC(=O)C1=C(C)NC(C)=C(C(=O)OC)C1c1ccccc1` (stereo not given), the logD (usually lipophilicity at a set pH, counting ionised and neutral species) turned out to be 3.74.

`COC(=O)C1=C(C)NC(C)=C(C(=O)OCc2cccnc2)C1c1cccc2c1OCO2` (stereo not given) yielded a logD of 3.21.

Consider `CCOC(=O)C1=C(C)NC(C)=C(C(=O)OC)C1c1ccc(OC)c(OC)c1` (stereo not given), for which the logD worked out at 3.2.

Regarding `COC(=O)C1=C(C)NC(C)=C(C(=O)OC(C)C)C1c1cccc2c1OCO2` (stereo not given), the logD turned out to be 3.75.

In the case of `COCCOC(=O)C1=C(C)NC(C)=C(C(=O)OC(C)C)C1c1cccc2c1OCO2` (stereo not given), the logD stood at 3.54.

Compound `COC(=O)C1=C(C)NC(C)=C(C(=O)OC)C1c1cccc2c1OCO2` showed a logD of 3.06.

`CCOC(=O)C1=C(C)NC(C)=C(C(=O)OC)C1c1cccc2c1OCCO2` (stereo not given) yielded a log distribution coefficient (logD) of 3.17. This logD and that of the compound before are within 0.2 log units of each other.

`CCOC(=O)C1=C(C)NC(C)=C(C(=O)OCC)C1c1cccc2c1OCO2` showed a logD of 3.92.

On to `CCOC(=O)C1=C(C)NC(C)=C(C(=O)OC(C)C)C1c1cccc2c1OCO2` (stereo not given), for which the logD is 4.31.

Take `CCOC(=O)C1=C(C)NC(C)=C(C(=O)OC)C1c1cc(OC)c(OC)c(OC)c1` (stereo not given): the logD turned out to be 2.99.

In the case of `CCOC(=O)C1=C(C)NC(C)=C(C(=O)OC)C1c1ccccc1OCOC` (stereo not given), the logD was determined as 3.38.

For the compound `CCOC(=O)C1=C(C)NC(C)=C(C(=O)OC)C1c1cc(OC)cc(OC)c1` (stereo not given), the logD was found to be 3.68.

For the compound `CCOC(=O)C1=C(C)NC(C)=C(C(=O)OC)C1c1cc(OC)c(O)c(OC)c1` (stereo not given), the logD was 2.43.

The compound `CC1=C(C#N)C(C)(C)C(C#N)=C(C)N1` displayed a logD of 2.47. The logD values of the last two compounds are within 0.2 log units of each other.

Consider `CCOC(=O)C1=C(C)NC(C)=C(C(=O)OC)C1c1cccc(OC)c1OC` (stereo not given), for which the log distribution coefficient (logD) was 3.18.
